Measurements taken from US9981942B2, “Piperidine derivatives having multimodal activity against pain” (LABORATORIOS DEL DR. ESTEVE S.A., priority 2013, dated 2018).

Test system: σ1 receptor and the μ-opiod receptor
Test: μ and σ1 dual binding: combined class from the Ki of both radioligand assays
Parameters: species or system human; key to μ and σ1 dual binding: +: Both Ki-μ and Ki-σ1>=500 nM; ++: One Ki<500 nM while the other Ki is >=500 nM; +++: Both Ki-μ and Ki-σ1<500 nM; ++++: Both Ki-μ and Ki-σ1<100 nM
Conditions: transfected HEK-293 membranes (σ1), transfected CHO-K1 cell membranes (μ); for μ and σ1 dual binding: combined class for Ki-μ and Ki-σ1
How it was run: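 Classes combine both Ki values, split at 500 nM and 100 nM. Human μ-opioid binding used 1 nM [3H]-DAMGO on CHO-K1 membranes (27 °C, 60 min, pH 7.4, naloxone 10 μM for NSB); human σ1 used 5 nM [3H](+)-pentazocine on HEK-293 membranes (37 °C, 120 min, pH 8, haloperidol 10 μM for NSB).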

| Compound | μ and σ1 dual binding | Ki range for both μ and σ1 (dual-binding class) [nM] |
| --- | --- | --- |
| CS(=O)(=O)Nc1cccc(C2CCN(Cc3cn(C4CCC(F)(F)CC4)nn3)CC2)c1 [Example 68, N-(3-(1-((1-(4,4-difluorocyclohexyl)-1H-1,2,3-triazol-4-yl)methyl)piperidin-4-yl)phenyl)methanesulfonamide] | ++ | – |
| CNS(=O)(=O)c1cccc(C2CCN(Cc3cn(Cc4ccccn4)nn3)CC2)c1 [Example 138, N-methyl-3-(1-((1-(pyridin-2-ylmethyl)-1H-1,2,3-triazol-4-yl)methyl)piperidin-4-yl)benzenesulfonamide] | – | ≥ 500 |
| Oc1cccc(C2CCN(Cc3cnn(-c4ccccc4)c3)CC2)c1 [Example 164, 3-(1-((1-phenyl-1H-pyrazol-4-yl)methyl)piperidin-4-yl)phenol] | – | < 100 |
| Nc1cccc(C2CCN(Cc3cn(-c4ccccc4)nn3)CC2)c1 [Example 94, 3-(1-((1-phenyl-1H-1,2,3-triazol-4-yl)methyl)piperidin-4-yl)aniline] | – | < 100 |
| c1ccc(Cn2cc(CN3CCC(c4cccc(Nc5nccs5)c4)CC3)nn2)nc1 [Example 229, N-(3-(1-((1-(pyridin-2-ylmethyl)-1H-1,2,3-triazol-4-yl)methyl)piperidin-4-yl)phenyl)thiazol-2-amine] | – | < 500 |
| c1ccc(-n2cc(CN3CCC(c4ccc5nc[nH]c5c4)CC3)nn2)cc1 [Example 21, 6-(1-((1-phenyl-1H-1,2,3-triazol-4-yl)methyl)piperidin-4-yl)-1H-benzo[d]imidazole] | – | < 500 |
| CC(C)S(=O)(=O)Nc1cccc(C2CCN(Cc3cn(Cc4ccccn4)cn3)CC2)c1 [Example 186, N-(3-(1-((1-(pyridin-2-ylmethyl)-1H-imidazol-4-yl)methyl)piperidin-4-yl)phenyl)propane-2-sulfonamide] | ++ | – |
| CS(=O)(=O)Nc1cc(C2CCN(Cc3cn(-c4ccccc4)nn3)CC2)ccn1 [Example 197, N-(4-(1-((1-phenyl-1H-1,2,3-triazol-4-yl)methyl)piperidin-4-yl)pyridin-2-yl)methanesulfonamide] | – | ≥ 500 |
| CC(C)Cn1cc(CN2CCC(c3cccc(O)c3)CC2)nn1 [Example 25, 3-(1-((1-isobutyl-1H-1,2,3-triazol-4-yl)methyl)piperidin-4-yl)phenol] | – | < 100 |
| CS(=O)(=O)Nc1cccc(C2CCN(Cc3cnn(-c4ccccc4)c3)CC2)c1 [Example 163, N-(3-(1-((1-phenyl-1H-pyrazol-4-yl)methyl)piperidin-4-yl)phenyl)methanesulfonamide] | – | < 100 |
| OC[C@@H](c1ccccc1)n1cc(CN2CCC(c3cccc(O)c3)CC2)nn1 (stereo in doubt) [Example 149, (R)-3-(1-((1-(2-hydroxy-1-phenylethyl)-1H-1,2,3-triazol-4-yl)methyl)piperidin-4-yl)phenol] | – | < 500 |
| O=S(=O)(Nc1cccc(C2CCN(Cc3cn(-c4ccccc4F)nn3)CC2)n1)C1CC1 [Example 228, N-(6-(1-((1-(2-fluorophenyl)-1H-1,2,3-triazol-4-yl)methyl)piperidin-4-yl)pyridin-2-yl)cyclopropanesulfonamid] | – | < 500 |
| CC(C)S(=O)(=O)Nc1cccc(C2CCN(Cc3cn(Cc4ncccc4F)nn3)CC2)n1 [Example 209, N-(6-(1-((1-((3-fluoropyridin-2-yl)methyl)-1H-1,2,3-triazol-4-yl)methyl)piperidin-4-yl)pyridin-2-yl)propane-2-sulfonamide] | ++ | – |
| c1ccc(-n2cc(CN3CCC(c4cccc5[nH]ncc45)CC3)nn2)cc1 [Example 29, 4-(1-((1-phenyl-1H-1,2,3-triazol-4-yl)methyl)piperidin-4-yl)-1H-indazole] | – | < 500 |
| CCC(=O)Nc1cccc(C2CCN(Cc3cn(Cc4ccccn4)nn3)CC2)c1 [Example 103, N-(3-(1-((1-(pyridin-2-ylmethyl)-1H-1,2,3-triazol-4-yl)methyl)piperidin-4-yl)phenyl)propionamide] | ++ | – |
| c1ccc(Cn2cc(CN3CCC(c4cccc(Nc5nccs5)n4)CC3)nn2)nc1 [Example 230, N-(6-(1-((1-(pyridin-2-ylmethyl)-1H-1,2,3-triazol-4-yl)methyl)piperidin-4-yl)pyridin-2-yl)thiazol-2-amine] | ++ | – |
| CCC(=O)Nc1cc(C2CCN(Cc3cn(-c4ccccc4)nn3)CC2)ccn1 [Example 196, N-(4-(1-((1-phenyl-1H-1,2,3-triazol-4-yl)methyl)piperidin-4-yl)pyridin-2-yl)propionamide] | – | ≥ 500 |
| CC(C)S(=O)(=O)Nc1cccc([C@@H]2CCN(Cc3cnn(-c4ccccn4)c3)C[C@@H]2O)c1 [Example 169, N-(3-((3R,4S)-3-hydroxy-1-((1-(pyridin-2-yl)-1H-pyrazol-4-yl)methyl)piperidin-4-yl)phenyl)propane-2-sulfonamide] | ++ | – |
| Oc1cccc(C2CCN(Cc3cn(Cc4ncccc4C(F)(F)F)nn3)CC2)c1 [Example 151, 3-(1-((1-((3-(trifluoromethyl)pyridin-2-yl)methyl)-1H-1,2,3-triazol-4-yl)methyl)piperidin-4-yl)phenol] | – | < 500 |
| CO[C@@H]1Cc2ccccc2[C@H]1n1cc(CN2CCC(c3cccc(O)c3)CC2)nn1 [Example 61, 3-(1-((1-((1R,2R)-2-methoxy-2,3-dihydro-1H-inden-1-yl)-1H-1,2,3-triazol-4-yl)methyl)piperidin-4-yl)phenol] | – | < 100 |
| CS(=O)(=O)Nc1ccc(F)c(C2CCN(Cc3cn(-c4ccccc4)nn3)CC2)c1 [Example 18, N-(4-fluoro-3-(1-((1-phenyl-1H-1,2,3-triazol-4-yl)methyl)piperidin-4-yl)phenyl)methanesulfonamide] | – | < 100 |
| Oc1cccc(C2CCN(Cc3cn(Cc4cccc(F)c4)nn3)CC2)c1 [Example 63, 3-(1-((1-(3-fluorobenzyl)-1H-1,2,3-triazol-4-yl)methyl)piperidin-4-yl)phenol] | – | < 100 |
| c1ccc(-n2cc(CN3CCC(c4cccc5[nH]cnc45)CC3)nn2)cc1 [Example 11, 4-(1-((1-phenyl-1H-1,2,3-triazol-4-yl)methyl)piperidin-4-yl)-1H-benzo[d]imidazole] | ++ | – |
| CC(C)S(=O)(=O)Nc1cccc(C2CCN(Cc3cn(Cc4cnc(C(F)(F)F)nc4)nn3)CC2)c1 [Example 129, N-(3-(1-((1-((2-(trifluoromethyl)pyrimidin-5-yl)methyl)-1H-1,2,3-triazol-4-yl)methyl)piperidin-4-yl)phenyl)propane-2-sulfonamide] | ++ | – |
| CS(=O)(=O)Nc1cccc([C@@H]2CCN(Cc3cn(-c4ccccc4)nn3)C[C@@H]2O)c1 [Example 110, N-(3-((3R,4S)-3-hydroxy-1-((1-phenyl-1H-1,2,3-triazol-4-yl)methyl)piperidin-4-yl)phenyl)methanesulfonamide] | ++ | – |
| CC(C)S(=O)(=O)Nc1cccc(C2CCN(Cc3cn(Cc4cccc(F)n4)nn3)CC2)c1 [Example 116, N-(3-(1-((1-((6-fluoropyridin-2-yl)methyl)-1H-1,2,3-triazol-4-yl)methyl)piperidin-4-yl)phenyl)propane-2-sulfonamide] | – | < 500 |
